From patent US9955676B2, “Transgenic model for delay-type hypersensitivity (DTH) and use thereof” (Macau University of Science and Technology, priority 2014, dated 2018)

How the values were obtained:
IKK-β+/+ mice = experiment: DNFB-induced delay-type hypersensitivity test with immunohistochemical staining, wild-type mice; format: in vivo, mouse; details: DNFB-induced DTH, FIG. 7
Source text: (§1) Delay-Type Hypersensitivity Test and Immunohistochemical Staining.
(§2) The in vivo anti-inflammatory effect of DMY on CD4^+ and CD8^+ lymphocytes is examined by administering this inhibitor to the mouse with delay-type hypersensitivity (DTH) based on the previously described method. The ear samples of DTH mice are fixed in 4% neutral-buffered formalin. Each sample is cut longitudinally into half and embedded in paraffin (Panreac), and then cut into 5 μm sections. Immunohistochemical staining is performed on slides.

IKK-β C46A mutant = biological target: T1, IKK-β C46A mutant (Homo sapiens, UniProt O14920, C46A); experiment: IKK-β kinase assay (K-LISA IKKβ-Inhibitor Screening Kit) on cysteine mutants; format: biochemical; details: FIG. 6a
T1 construct: FLAG; made in house
T1 sequence (O14920 1-756 C46A): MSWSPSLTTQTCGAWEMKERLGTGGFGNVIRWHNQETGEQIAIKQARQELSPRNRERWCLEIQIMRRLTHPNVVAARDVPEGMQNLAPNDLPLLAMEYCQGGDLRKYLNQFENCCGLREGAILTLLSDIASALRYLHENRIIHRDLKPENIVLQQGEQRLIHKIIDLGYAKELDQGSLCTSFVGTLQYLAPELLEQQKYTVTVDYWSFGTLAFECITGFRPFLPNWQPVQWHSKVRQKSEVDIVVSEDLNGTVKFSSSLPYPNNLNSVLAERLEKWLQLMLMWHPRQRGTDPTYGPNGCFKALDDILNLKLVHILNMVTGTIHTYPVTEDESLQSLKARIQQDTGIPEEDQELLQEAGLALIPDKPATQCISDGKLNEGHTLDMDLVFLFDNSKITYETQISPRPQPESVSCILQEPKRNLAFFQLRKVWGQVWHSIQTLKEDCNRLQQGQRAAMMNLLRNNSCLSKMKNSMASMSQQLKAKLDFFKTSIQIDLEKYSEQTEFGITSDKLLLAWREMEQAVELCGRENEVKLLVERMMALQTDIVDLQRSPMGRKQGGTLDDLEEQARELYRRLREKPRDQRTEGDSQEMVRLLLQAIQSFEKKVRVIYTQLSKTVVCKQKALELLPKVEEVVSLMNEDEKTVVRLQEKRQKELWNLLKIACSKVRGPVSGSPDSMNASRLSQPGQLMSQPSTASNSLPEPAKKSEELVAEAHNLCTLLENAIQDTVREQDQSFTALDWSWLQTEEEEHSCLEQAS
Method: IKK-β kinase assay is performed using a K-LISA™ IKKβ-Inhibitor Screening Kit (Calbiochem).
To determine the specificity to which cysteine residue(s) on IKK-β for the inhibitory action of a well-known inhibitor, DMY, all other 15 single point mutation IKK-β constructs with cysteine (C) residues are replaced with alanine (A) by site-directed mutagenesis (FIG. 6a), except Cys-46.

IKK-β C46A mutant mice = experiment: DNFB-induced delay-type hypersensitivity test with immunohistochemical staining, mutant mice; format: in vivo, mouse; details: homozygous IKK-β C46A mutant mice
Source text: as §1, §2

[1] = system: IKK-β (wt) / NF-κB signaling; experiment: Western blotting of TNF-α-stimulated IKK-β−/− MEFs transfected with IKK-β wild-type; format: cell-based, mouse; details: DMY pretreatment 60 min, FIG. 6c
Method: Western Blotting Analysis.
IKK-β^−/− deficient mouse embryonic fibroblasts (MEFs) are provided as a gift by Prof. Michael Karin (University of California, San Diego). IKK-β^−/− deficient MEFs transfected with IKK-β wild-type or mutant C46A constructs are pretreated with DMY at 37° C. for 60 min, and then the cells are stimulated with TNF-α and harvested for western blotting analysis. The expressions of IκBα, p-p65^ser536, FLAG-IKK-β and actin are detected with their specific antibodies.

CIA rats = experiment: Collagen-II induced arthritis (CIA) rat model; format: in vivo
Method: Experimental arthritis induced by collagen-II in rats. CIA is induced in female Wistar rats. Dexamethasone (DEX, 0.1 mg/kg), methotrexate (MTX, 3.75 mg/kg, twice per week) and indomethacin (Indo, 1 mg/kg) are used as reference drugs.

For `O=C1c2c(O)cc(O)cc2O[C@H](c2cc(O)c(O)c(O)c2)[C@H]1O` [DMY, dihydromyricetin], the “number of CD8+ lymphocytes in ear sections” value (IKK-β+/+ mice) was “gradually decreases”, the “kinase inhibitory effect (phosphorylation of IκBα)” value (IKK-β C46A mutant) was “abrogates the kinase inhibitory effect” and the “anti-inflammatory potency in DTH responses” value (IKK-β C46A mutant mice) was “diminished anti-inflammatory potency”. For the same compound, the “TNF-α-induced phosphorylation of NF-κB p65 and degradation of IκBα” value [1] was “suppression of TNF-α-induced phosphorylation of NF-κB p65 and degradation of IκBα”, the “NF-κB signaling in the knee synovial tissues” value (CIA rats; CIA rats, FIG. 8c) was “significantly suppress” and the organ indexes (CIA rats; CIA rats, FIG. 8d) was “no adverse impairment”. The body weight (CIA rats; CIA rats, compared to vehicle- and reference reagents-treated animals, FIG. 8e) was “prevent loss of body weight”, the hind paw volumes (CIA rats; compared to vehicle-treated CIA rats, FIG. 8a) was “significantly decrease” and the arthritic scores (CIA rats; compared to vehicle-treated CIA rats, FIG. 8b) was “significantly decrease”.
